Source: ChEMBL document CHEMBL1201862, “PubChem BioAssay data set” (2004)
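A five-concentration, 48-hour dose response in 96-well plates underlies each endpoint, interpolated linearly between surrounding concentrations. GI50 marks 50% less growth.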 The source made the active and inactive calls. Rule as the data show it: active = GI50 up to about 1.1 µM and inactive = higher.

Columns and labels:
Test in all cases: NCI-60 cell line screen, 48 h
[1] = system: A549
[2] = system: ACHN
[3] = system: HCT-15
[4] = system: HL-60
[5] = system: IGROV-1
[6] = system: KM12
[7] = system: LOX IMVI
[8] = system: NCI-H226
[9] = system: NCI-H23
[10] = system: NCI-H460
[11] = system: OVCAR-3
[12] = system: RXF 393
[13] = system: SF-268
[14] = system: SF-295
[15] = system: SK-MEL-28
[16] = system: SK-MEL-2
[17] = system: SN12C
[18] = system: SNB-75
[19] = system: SR
[20] = system: UACC-257

Compound: COc1c(O)ccc2c1CN1CCc3cc4c(cc3C1C2)OCO4 (stereo not given)
- GI50 [1]: 32.5 µM (inactive)
- GI50 [2]: 16.3 µM (inactive)
- GI50 [3]: 21.6 µM
- GI50 [4]: 20 µM (inactive)
- GI50 [5]: 28.6 µM (inactive)
- GI50 [6]: 22.1 µM (inactive)
- GI50 [7]: 22.8 µM (inactive)
- GI50 [8]: 44.5 µM (inactive)
- GI50 [9]: 36.2 µM (inactive)
- GI50 [10]: 18.4 µM (inactive)
- GI50 [11]: 26.4 µM (inactive)
- GI50 [12]: 12.6 µM (inactive)
- GI50 [13]: 37 µM (inactive)
- GI50 [14]: 29.7 µM (inactive)
- GI50 [15]: 45.1 µM (inactive)
- GI50 [16]: 30.6 µM (inactive)
- GI50 [17]: 27.7 µM (inactive)
- GI50 [18]: 14.5 µM (inactive)
- GI50 [19]: 0.441 µM (active)
- GI50 [20]: 31 µM (inactive)

Compound: CSC(=S)Nc1cccc(C)n1
- GI50 [1]: > 100 µM (inactive)
- GI50 [2]: > 100 µM (inactive)
- GI50 [3]: > 100 µM
- GI50 [4]: > 100 µM (inactive)
- GI50 [5]: > 100 µM (inactive)
- GI50 [6]: > 100 µM (inactive)
- GI50 [7]: > 100 µM (inactive)
- GI50 [8]: > 100 µM (inactive)
- GI50 [9]: > 100 µM (inactive)
- GI50 [10]: > 100 µM (inactive)
- GI50 [11]: 52.4 µM (inactive)
- GI50 [12]: > 100 µM (inactive)
- GI50 [13]: > 100 µM (inactive)
- GI50 [14]: > 100 µM (inactive)
- GI50 [15]: > 100 µM (inactive)
- GI50 [16]: > 100 µM (inactive)
- GI50 [17]: > 100 µM (inactive)
- GI50 [18]: > 100 µM (inactive)
- GI50 [19]: > 100 µM (inactive)
- GI50 [20]: > 100 µM (inactive)

Compound: CCOC(=O)C(Cc1ccc(O)cc1)Nc1nc(=O)c2c(=O)oc(Cl)cc2o1 (stereo not given)
- GI50 [1]: 16.1 µM (inactive)
- GI50 [2]: 12.2 µM (inactive)
- GI50 [3]: 4.33 µM
- GI50 [4]: 2.84 µM (inactive)
- GI50 [5]: 5.09 µM (inactive)
- GI50 [6]: 10.2 µM (inactive)
- GI50 [7]: 4.62 µM (inactive)
- GI50 [8]: 19.7 µM (inactive)
- GI50 [9]: 10.9 µM (inactive)
- GI50 [10]: 16.4 µM (inactive)
- GI50 [11]: 6.78 µM (inactive)
- GI50 [12]: 4.38 µM (inactive)
- GI50 [13]: 3.82 µM (inactive)
- GI50 [14]: 16 µM (inactive)
- GI50 [15]: 4.13 µM (inactive)
- GI50 [16]: 12.5 µM (inactive)
- GI50 [17]: 6.28 µM (inactive)
- GI50 [18]: 4.91 µM (inactive)
- GI50 [19]: 2.7 µM (inactive)
- GI50 [20]: 8 µM (inactive)

Compound: CNC1Cc2c[nH]c3cccc(c23)C12C=C(C)C(=O)O2 (stereo not given)
- GI50 [1]: > 100 µM (inactive)
- GI50 [2]: > 100 µM (inactive)
- GI50 [3]: > 100 µM
- GI50 [4]: > 100 µM (inactive)
- GI50 [5]: > 100 µM (inactive)
- GI50 [6]: > 100 µM (inactive)
- GI50 [7]: > 100 µM (inactive)
- GI50 [8]: > 100 µM (inactive)
- GI50 [9]: > 100 µM (inactive)
- GI50 [10]: > 100 µM (inactive)
- GI50 [11]: > 100 µM (inactive)
- GI50 [12]: > 100 µM (inactive)
- GI50 [13]: > 100 µM (inactive)
- GI50 [14]: > 100 µM (inactive)
- GI50 [15]: > 100 µM (inactive)
- GI50 [16]: > 100 µM (inactive)
- GI50 [17]: > 100 µM (inactive)
- GI50 [18]: > 100 µM (inactive)
- GI50 [19]: 88.5 µM (inactive)
- GI50 [20]: > 100 µM (inactive)

Compound: C/C(=N\NC(N)=S)c1ccc(C)c(C)c1
- GI50 [1]: 65.8 µM (inactive)
- GI50 [2]: 59.2 µM (inactive)
- GI50 [3]: 58.5 µM
- GI50 [4]: 15.1 µM (inactive)
- GI50 [5]: 25.4 µM (inactive)
- GI50 [6]: 44.5 µM (inactive)
- GI50 [7]: > 100 µM (inactive)
- GI50 [8]: 51.2 µM (inactive)
- GI50 [9]: 85.7 µM (inactive)
- GI50 [10]: 59.3 µM (inactive)
- GI50 [11]: 22.8 µM (inactive)
- GI50 [12]: 23 µM (inactive)
- GI50 [13]: > 100 µM (inactive)
- GI50 [14]: 48.8 µM (inactive)
- GI50 [15]: > 100 µM (inactive)
- GI50 [16]: 45 µM (inactive)
- GI50 [17]: 49.9 µM (inactive)
- GI50 [18]: 40.3 µM (inactive)
- GI50 [19]: 68.9 µM (inactive)
- GI50 [20]: 44.2 µM (inactive)

Compound: Cc1cc(O)nc(NNC(C#N)c2ccco2)n1 (stereo not given)
- GI50 [1]: > 100 µM (inactive)
- GI50 [2]: > 100 µM (inactive)
- GI50 [3]: > 100 µM
- GI50 [4]: > 100 µM (inactive)
- GI50 [5]: > 100 µM (inactive)
- GI50 [6]: > 100 µM (inactive)
- GI50 [7]: > 100 µM (inactive)
- GI50 [8]: > 100 µM (inactive)
- GI50 [9]: > 100 µM (inactive)
- GI50 [10]: > 100 µM (inactive)
- GI50 [11]: > 100 µM (inactive)
- GI50 [12]: > 100 µM (inactive)
- GI50 [13]: > 100 µM (inactive)
- GI50 [14]: > 100 µM (inactive)
- GI50 [15]: > 100 µM (inactive)
- GI50 [16]: > 100 µM (inactive)
- GI50 [17]: > 100 µM (inactive)
- GI50 [18]: 37.2 µM (inactive)
- GI50 [19]: > 100 µM (inactive)
- GI50 [20]: > 100 µM (inactive)

Compound: CN(C)C(=S)/N=c1\ssc(=S)n1Cc1ccccc1
- GI50 [1]: 0.78 µM (active)
- GI50 [2]: 0.807 µM (active)
- GI50 [3]: 0.237 µM
- GI50 [4]: 0.338 µM (active)
- GI50 [5]: 0.632 µM (active)
- GI50 [6]: 0.24 µM (active)
- GI50 [7]: 0.455 µM (active)
- GI50 [8]: 2.61 µM (inactive)
- GI50 [9]: 0.465 µM (active)
- GI50 [10]: 0.34 µM (active)
- GI50 [11]: 0.168 µM (active)
- GI50 [12]: 0.172 µM (active)
- GI50 [13]: 1.82 µM (inactive)
- GI50 [14]: 0.229 µM (active)
- GI50 [15]: 0.661 µM (active)
- GI50 [16]: 0.365 µM (active)
- GI50 [17]: 0.867 µM (active)
- GI50 [18]: 0.203 µM (active)
- GI50 [19]: 0.129 µM (active)
- GI50 [20]: 0.43 µM (active)

Compound: CC(C)(c1ccc(Oc2ccc(C#N)c(C#N)c2)cc1)c1ccc(Oc2ccc(C#N)c(C#N)c2)cc1
- GI50 [1]: > 10 µM (inactive)
- GI50 [2]: > 10 µM (inactive)
- GI50 [3]: > 10 µM
- GI50 [4]: > 10 µM (inactive)
- GI50 [5]: > 10 µM (inactive)
- GI50 [6]: > 10 µM (inactive)
- GI50 [7]: > 10 µM (inactive)
- GI50 [8]: > 10 µM (inactive)
- GI50 [9]: > 10 µM (inactive)
- GI50 [10]: > 10 µM (inactive)
- GI50 [11]: > 10 µM (inactive)
- GI50 [12]: > 10 µM (inactive)
- GI50 [13]: > 10 µM (inactive)
- GI50 [14]: > 10 µM (inactive)
- GI50 [15]: > 10 µM (inactive)
- GI50 [16]: > 10 µM (inactive)
- GI50 [17]: > 10 µM (inactive)
- GI50 [18]: 1.78 µM (inactive)
- GI50 [19]: > 10 µM (inactive)
- GI50 [20]: > 10 µM (inactive)

Compound: O=Cc1[nH]c(=O)[nH]c(=O)c1C(=O)O
- GI50 [1]: > 100 µM (inactive)
- GI50 [2]: > 100 µM (inactive)
- GI50 [3]: > 100 µM
- GI50 [4]: > 100 µM (inactive)
- GI50 [5]: > 100 µM (inactive)
- GI50 [6]: > 100 µM (inactive)
- GI50 [7]: > 100 µM (inactive)
- GI50 [8]: > 100 µM (inactive)
- GI50 [9]: > 100 µM (inactive)
- GI50 [10]: > 100 µM (inactive)
- GI50 [11]: > 100 µM (inactive)
- GI50 [12]: > 100 µM (inactive)
- GI50 [13]: > 100 µM (inactive)
- GI50 [14]: > 100 µM (inactive)
- GI50 [15]: > 100 µM (inactive)
- GI50 [16]: > 100 µM (inactive)
- GI50 [17]: > 100 µM (inactive)
- GI50 [18]: 43.8 µM (inactive)
- GI50 [19]: > 100 µM (inactive)
- GI50 [20]: > 100 µM (inactive)

Compound: CC/C(CC(=O)CCC(=O)Nc1ccccc1[N+](=O)[O-])=N/NC(=O)C[n+]1ccccc1
- GI50 [1]: > 100 µM (inactive)
- GI50 [2]: > 100 µM (inactive)
- GI50 [3]: > 100 µM
- GI50 [4]: > 100 µM (inactive)
- GI50 [5]: > 100 µM (inactive)
- GI50 [6]: > 100 µM (inactive)
- GI50 [7]: > 100 µM (inactive)
- GI50 [8]: > 100 µM (inactive)
- GI50 [9]: > 100 µM (inactive)
- GI50 [10]: > 100 µM (inactive)
- GI50 [11]: > 100 µM (inactive)
- GI50 [12]: > 100 µM (inactive)
- GI50 [13]: > 100 µM (inactive)
- GI50 [14]: > 100 µM (inactive)
- GI50 [15]: > 100 µM (inactive)
- GI50 [16]: > 100 µM (inactive)
- GI50 [17]: > 100 µM (inactive)
- GI50 [18]: > 100 µM (inactive)
- GI50 [19]: > 100 µM (inactive)
- GI50 [20]: > 100 µM (inactive)

Compound: COc1ccc2nc3ccccc3c(NCCCCCCN(CCCl)CCCl)c2c1
- GI50 [1]: 0.054 µM (active)
- GI50 [2]: 0.0184 µM (active)
- GI50 [3]: 0.0577 µM
- GI50 [4]: 0.0122 µM (active)
- GI50 [5]: 0.148 µM (active)
- GI50 [6]: 0.151 µM (active)
- GI50 [7]: 0.0199 µM (active)
- GI50 [8]: 0.25 µM (active)
- GI50 [9]: 0.15 µM (active)
- GI50 [10]: 0.0346 µM (active)
- GI50 [11]: 0.0627 µM (active)
- GI50 [12]: 0.187 µM (active)
- GI50 [13]: 0.0649 µM (active)
- GI50 [14]: 0.0767 µM (active)
- GI50 [15]: 1.06 µM (active)
- GI50 [16]: 0.297 µM (active)
- GI50 [17]: 0.0348 µM (active)
- GI50 [18]: 0.108 µM (active)
- GI50 [19]: 0.0115 µM (active)
- GI50 [20]: 1.6 µM (inactive)
